Source: the supplement of paper PMC13380429
± gives the standard deviation of the averaged measurements.

Columns and labels:
Conditions in all cases: 72 h
Caco-2 [1] = assay: cell viability relative to DMSO; higher = less toxic
Calu-3 [2] = assay: as above
HepG2 [3] = assay: as above
U2OS [4] = assay: as above
Vero E6 [5] = assay: as above
Caco-2 [6] = assay: relative viability EC50 (midpoint between 100% and the lowest measured viability); higher = less toxic
Calu-3 [7] = assay: as above
HepG2 [8] = assay: as above
U2OS [9] = assay: as above
Vero E6 [10] = assay: as above
Caco-2 [11] = assay: drug sensitivity score (DSS) for viability; higher = more toxic; extreme values may be limits of the assay
Calu-3 [12] = assay: as above
HepG2 [13] = assay: as above
U2OS [14] = assay: as above
Vero E6 [15] = assay: as above

Row | Structure (SMILES) | cell viability (Caco-2 [1]; 1 nM) | cell viability (Caco-2 [1]; 10 nM) | cell viability (Caco-2 [1]; 100 nM) | cell viability (Caco-2 [1]; 1000 nM) | cell viability (Caco-2 [1]; 10000 nM) | cell viability (Calu-3 [2]; 1 nM) | cell viability (Calu-3 [2]; 10 nM) | cell viability (Calu-3 [2]; 100 nM) | cell viability (Calu-3 [2]; 1000 nM) | cell viability (Calu-3 [2]; 10000 nM) | cell viability (HepG2 [3]; 1 nM) | cell viability (HepG2 [3]; 10 nM) | cell viability (HepG2 [3]; 100 nM) | cell viability (HepG2 [3]; 1000 nM) | cell viability (HepG2 [3]; 10000 nM) | cell viability (U2OS [4]; 1 nM) | cell viability (U2OS [4]; 10 nM) | cell viability (U2OS [4]; 100 nM) | cell viability (U2OS [4]; 1000 nM) | cell viability (U2OS [4]; 10000 nM) | cell viability (Vero E6 [5]; 1 nM) | cell viability (Vero E6 [5]; 10 nM) | cell viability (Vero E6 [5]; 100 nM) | cell viability (Vero E6 [5]; 1000 nM) | cell viability (Vero E6 [5]; 10000 nM) | relative viability EC50 (Caco-2 [6]) | relative viability EC50 (Calu-3 [7]) | relative viability EC50 (HepG2 [8]) | relative viability EC50 (U2OS [9]) | relative viability EC50 (Vero E6 [10]) | drug sensitivity score (Caco-2 [11]) | drug sensitivity score (Calu-3 [12]) | drug sensitivity score (HepG2 [13]) | drug sensitivity score (U2OS [14]) | drug sensitivity score (Vero E6 [15])
1 | O=C(Nc1ccccc1)c1ccccc1O [salicylanilide] | 80% | 101% | 112% | 102% | 90.6% | 107% | 100% | 102% | 90.9% | 111% | 102% | 96.6% | 94.4% | 94.6% | 75.6% | 95.9% | 96.9% | 97.1% | 93.8% | 97.5% | 95.9% | 98.4% | 98.4% | 100% | 99.9% | > 10 µM | > 10 µM | > 10 µM | > 10 µM | > 10 µM | 0 | 0 | 1.6 | 0 | 0
2 | NS(=O)(=O)NCCNc1nonc1/C(=N/O)Nc1ccc(F)c(Br)c1 | 89.9% | 100% | 98% | 102% | 96.4% | 100% | 96.2% | 93.7% | 95% | 95.4% | 100% | 96% | 103% | 94.8% | 102% | 93.6% | 102% | 96.2% | 102% | 95% | 100% | 98.9% | 98.2% | 94.5% | 107% | > 10 µM | > 10 µM | > 10 µM | > 10 µM | > 10 µM | 0 | 0 | 0 | 0 | 0
3 | O=C(c1cc(S(=O)(=O)Nc2ccccc2F)c(F)cc1Cl)N1CCN2CCC[C@@H]2C1 [ABT-639] | 95.2% | 97.8% | 98.9% | 94.9% | 104% | 103% | 104% | 99.8% | 106% | 96.1% | 94.4% | 106% | 87.2% | 105% | 92.5% | 99.1% | 97.4% | 99% | 95.1% | 99.5% | 102% | 98.9% | 97.8% | 100% | 100% | > 10 µM | > 10 µM | > 10 µM | > 10 µM | > 10 µM | 0 | 0 | 0 | 0 | 0
4 | CC(C)(C)[C@]1(O)CC2OC(=O)CC23C(=O)OC2OC(=O)[C@H](O)C231 (stereo not given in full) [bilobalide] | 98% | 97.6% | 97.2% | 107% | 89.7% | 101% | 98.9% | 109% | 108% | 116% | 95.1% | 97.1% | 104% | 117% | 108% | 94.7% | 104% | 94% | 98.5% | 97.7% | 104% | 104% | 105% | 96.6% | 103% | > 10 µM | > 10 µM | > 10 µM | > 10 µM | > 10 µM | 0 | 0 | 0 | 0 | 0
5 | N[C@@H](Cc1ccc(Cl)cc1)C(=O)O (racemic) [fenclonine-(+/-)] | 94% | 102% | 97.9% | 97.5% | 93.2% | 98.1% | 101% | 97.7% | 96.4% | 97.1% | 103% | 107% | 101% | 93.7% | 100% | 93.6% | 101% | 96.4% | 102% | 97.2% | 110% | 106% | 105% | 98.6% | 102% | > 10 µM | > 10 µM | > 10 µM | > 10 µM | > 10 µM | 0 | 0 | 0 | 0 | 0
6 | O=C([O-])C(O)[C@H](O)[C@@H](O)[C@H](O)[C@H](O)CO.O=C([O-])C(O)[C@H](O)[C@@H](O)[C@H](O)[C@H](O)CO.[Ca+2] (stereo not given in full) [calcium-gluceptate] | 95.7 ± 8% | 93.6 ± 0.71% | 92.9 ± 8.3% | 98.8 ± 2.1% | 103.5 ± 0.14% | 138 ± 44% | 99 ± 6.2% | 101 ± 7.8% | 94.2 ± 20% | 97.4 ± 1.1% | 100 ± 12% | 95.1 ± 23% | 103 ± 6.7% | 100 ± 4% | 100 ± 8% | 98.9% | 89.9% | 101% | 95.3% | 106% | 97.2 ± 7.6% | 85.1 ± 15% | 91.5 ± 2.7% | 82.3 ± 16% | 108.3 ± 0.49% | > 10 µM | > 10 µM | > 10 µM | > 10 µM | > 10 µM | 0 | 0 | 0 | 0 | 0
7 | Cc1cccc(CN2CCN(C(c3ccccc3)c3ccc(Cl)cc3)CC2)c1 (stereo not given) [meclizine] | 91.9% | 101% | 97.1% | 99.5% | 85.8% | 92.7% | 88.4% | 95.7% | 94.1% | 87.6% | 102% | 108% | 106% | 92.3% | 90% | 96.5% | 98.6% | 93.6% | 101% | 91.6% | 107% | 105% | 103% | 102% | 97.7% | > 10 µM | > 10 µM | > 10 µM | > 10 µM | > 10 µM | 0.2 | 0 | 0 | 0 | 0
